# Experimental data taken from US12297190B2, “Modulators of STING (stimulator of interferon genes)” (PFIZER INC., priority 2019, dated 2025).
# Biological target: R232-STING (Homo sapiens, UniProt Q86WV6, H232R)
# Test: biochemical
# Chain of R232-STING (Q86WV6 155-341 H232R): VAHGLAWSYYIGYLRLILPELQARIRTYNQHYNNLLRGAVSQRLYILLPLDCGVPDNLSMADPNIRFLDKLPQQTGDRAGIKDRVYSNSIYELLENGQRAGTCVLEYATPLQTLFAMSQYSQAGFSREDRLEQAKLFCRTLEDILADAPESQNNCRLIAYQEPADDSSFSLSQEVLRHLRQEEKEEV
row,Structure (SMILES),Ki [nM]
1,"CCn1nc(C)cc1-c1nnc(-c2cc(C(N)=O)cc3c2cnn3CC2CCCN3CCCCC23)[nH]1 (centres unmarked) [ZZZ016, 4-[5-(1-ethyl-3-methyl-1H-pyrazol-5-yl)-4H-1,2,4-triazol-3-yl]-1-[(octahydro-2H-quinolizin-1-yl)methyl]-1H-indazole-6-carboxamide]",826
2,"CCn1nc(C)cc1-c1nnc(-c2cc(C(N)=O)cc3c2cnn3C[C@H]2[C@@H]3CN(C(C)C)C[C@@H]32)[nH]1 [ZZZ017, 4-[5-(1-ethyl-3-methyl-1H-pyrazol-5-yl)-4H-1,2,4-triazol-3-yl]-1-{[(1R,5S,6r)-3-(propan-2-yl)-3-azabicyclo[3.1.0]hexan-6-yl]methyl}-1H-indazole-6-carboxamide]",> 990
3,"CCn1nc(C)cc1-c1nnc(-c2cc(C(N)=O)cc3c2cnn3CCN2CCC(C)CC2)[nH]1 [ZZZ018, 4-[5-(1-ethyl-3-methyl-1H-pyrazol-5-yl)-4H-1,2,4-triazol-3-yl]-1-[2-(4-methylpiperidin-1-yl)ethyl]-1H-indazole-6-carboxamide]",748
4,"CCn1nc(C)cc1-c1nnc(-c2cc(C(N)=O)cc3c2cnn3CC23CCCN2CCC3)[nH]1 [ZZZ019, 4-[5-(1-ethyl-3-methyl-1H-pyrazol-5-yl)-4H-1,2,4-triazol-3-yl]-1-[(tetrahydro-1H-pyrrolizin-7a(5H)-yl)methyl]-1H-indazole-6-carboxamide]",726
5,"CCn1nc(C)cc1-c1nnc(-c2cc(C(N)=O)cc3c2cnn3[C@@H](C)CN(C)C)[nH]1 [ZZZ020, 1-[(2S)-1-(dimethylamino)propan-2-yl]-4-[5-(1-ethyl-3-methyl-1H-pyrazol-5-yl)-4H-1,2,4-triazol-3-yl]-1H-indazole-6-carboxamide]",> 990
6,"CCn1nc(C)cc1-c1nnc(-c2cc(C(N)=O)cc3c2cnn3CCOCCN(C)C)[nH]1 [ZZZ021, 1-{2-[2-(dimethylamino)ethoxy]ethyl}-4-[5-(1-ethyl-3-methyl-1H-pyrazol-5-yl)-4H-1,2,4-triazol-3-yl]-1H-indazole-6-carboxamide]",> 990
7,"CCn1nc(C)cc1-c1nnc(-c2cc(C(N)=O)cc3c2cnn3[C@@H](C)CN2CCCC2)[nH]1 [ZZZ024, 4-[5-(1-ethyl-3-methyl-1H-pyrazol-5-yl)-4H-1,2,4-triazol-3-yl]-1-[(2S)-1-(pyrrolidin-1-yl)propan-2-yl]-1H-indazole-6-carboxamide]",> 990
8,"CCn1nc(C)cc1-c1nnc(-c2cc(C(N)=O)cc3c2cnn3C(C)CN2CCCCC2)[nH]1 (centres unmarked) [ZZZ026, 4-[5-(1-ethyl-3-methyl-1H-pyrazol-5-yl)-4H-1,2,4-triazol-3-yl]-1-[1-(piperidin-1-yl)propan-2-yl]-1H-indazole-6-carboxamide]",> 990
9,"CCn1nc(C)cc1-c1nnc(-c2cc(C(N)=O)cc3c2cnn3C[C@H]2CCCN2C)[nH]1 [ZZZ027, 4-[5-(1-ethyl-3-methyl-1H-pyrazol-5-yl)-4H-1,2,4-triazol-3-yl]-1-{[(2R)-1-methylpyrrolidin-2-yl]methyl}-1H-indazole-6-carboxamide]",> 990
10,"CCn1nc(C)cc1-c1nnc(-c2cc(C(N)=O)cc3c2cnn3CC2(CN(C)C)CC2)[nH]1 [ZZZ028, 1-({1-[(dimethylamino)methyl]cyclopropyl}methyl)-4-[5-(1-ethyl-3-methyl-1H-pyrazol-5-yl)-4H-1,2,4-triazol-3-yl]-1H-indazole-6-carboxamide]",> 990
11,"CCn1nc(C)cc1-c1nnc(-c2cc(C(N)=O)cc3c2cnn3CCN(C)CCOC)[nH]1 [ZZZ030, 4-[5-(1-ethyl-3-methyl-1H-pyrazol-5-yl)-4H-1,2,4-triazol-3-yl]-1-{2-[(2-methoxyethyl)(methyl)amino]ethyl}-1H-indazole-6-carboxamide]",861
12,"CCn1nc(C)cc1-c1nnc(-c2cc(C(N)=O)cc3c2cnn3C[C@H]2CCCCN2C)[nH]1 [ZZZ032, 4-[5-(1-ethyl-3-methyl-1H-pyrazol-5-yl)-4H-1,2,4-triazol-3-yl]-1-{[(2R)-1-methylpiperidin-2-yl]methyl}-1H-indazole-6-carboxamide]",967
13,"CCn1nc(C)cc1-c1nnc(-c2cc(C(N)=O)cc3c2cnn3CC2CC3(CCN(C)CC3)C2)[nH]1 [ZZZ033, 4-[5-(1-ethyl-3-methyl-1H-pyrazol-5-yl)-4H-1,2,4-triazol-3-yl]-1-[(7-methyl-7-azaspiro[3.5]nonan-2-yl)methyl]-1H-indazole-6-carboxamide]",572
14,"CCn1nc(C)cc1-c1nnc(-c2cc(C(N)=O)cc3c2cnn3CCCCN(C)C)[nH]1 [ZZZ034, 1-[4-(dimethylamino)butyl]-4-[5-(1-ethyl-3-methyl-1H-pyrazol-5-yl)-4H-1,2,4-triazol-3-yl]-1H-indazole-6-carboxamide]",> 990
15,"CCn1nc(C)cc1-c1nnc(-c2cc(C(N)=O)cc3c2cnn3CC[C@@H]2CCN(C)C2)[nH]1 [ZZZ035, 4-[5-(1-ethyl-3-methyl-1H-pyrazol-5-yl)-4H-1,2,4-triazol-3-yl]-1-{2-[(3S)-1-methylpyrrolidin-3-yl]ethyl}-1H-indazole-6-carboxamide]",> 990
16,"CCn1nc(C)cc1-c1nnc(-c2cc(C(N)=O)cc3c2cnn3CCN2CC(C)C2)[nH]1 [ZZZ036, 4-[5-(1-ethyl-3-methyl-1H-pyrazol-5-yl)-4H-1,2,4-triazol-3-yl]-1-[2-(3-methylazetidin-1-yl)ethyl]-1H-indazole-6-carboxamide]",> 990

row,Structure (SMILES),Ki [nM]
1,"CCn1nc(C)cc1-c1nnc(-c2cc(C(N)=O)cc3c2cnn3CCCCN2CCOCC2)[nH]1 [ZZZ037, 4-[5-(1-ethyl-3-methyl-1H-pyrazol-5-yl)-4H-1,2,4-triazol-3-yl]-1-[4-(morpholin-4-yl)butyl]-1H-indazole-6-carboxamide]",727
2,"CCn1nc(C)cc1-c1nnc(-c2cc(C(N)=O)cc3c2cnn3CCN2CCC2)[nH]1 [ZZZ039, 1-[2-(azetidin-1-yl)ethyl]-4-[5-(1-ethyl-3-methyl-1H-pyrazol-5-yl)-4H-1,2,4-triazol-3-yl]-1H-indazole-6-carboxamide]",> 990
3,"CCn1nc(C)cc1-c1nnc(-c2cc(C(N)=O)cc3c2cnn3C(C)CN2CCCC2)[nH]1 (centres unmarked) [ZZZ040, 4-[5-(1-ethyl-3-methyl-1H-pyrazol-5-yl)-4H-1,2,4-triazol-3-yl]-1-[1-(pyrrolidin-1-yl)propan-2-yl]-1H-indazole-6-carboxamide]",> 990
4,"CCn1nc(C)cc1-c1nnc(-c2cc(C(N)=O)cc3c2cnn3CCCCN2CCCCC2)[nH]1 [ZZZ043, 4-[5-(1-ethyl-3-methyl-1H-pyrazol-5-yl)-4H-1,2,4-triazol-3-yl]-1-[4-(piperidin-1-yl)butyl]-1H-indazole-6-carboxamide]",> 990
5,"CCn1nc(C)cc1-c1nnc(-c2c(C(F)(F)F)c(C(N)=O)cc3c2cnn3C)[nH]1 [ZZZ044, 4-[5-(1-ethyl-3-methyl-1H-pyrazol-5-yl)-4H-1,2,4-triazol-3-yl]-1-methyl-5-(trifluoromethyl)-1H-indazole-6-carboxamide]",> 900
6,"CCn1nc(C)c(F)c1-c1nc(CN)c(-c2nc(C(N)=O)cc3c2cnn3C)o1 [ZZZ045, 4-[4-(aminomethyl)-2-(1-ethyl-4-fluoro-3-methyl-1H-pyrazol-5-yl)-1,3-oxazol-5-yl]-1-methyl-1H-pyrazolo[4,3-c]pyridine-6-carboxamide]",> 900
7,"CCn1nc(CO)cc1-c1n[nH]c(-c2nc(C(N)=O)cc3[nH]ncc23)n1 [ZZZ046, 4-{3-[1-ethyl-3-(hydroxymethyl)-1H-pyrazol-5-yl]-1H-1,2,4-triazol-5-yl}-1H-pyrazolo[4,3-c]pyridine-6-carboxamide]",> 990
8,"CCn1nc(C)cc1-c1nc(-c2nc(C(N)=O)cc3c2cnn3C)n(CCN)n1 [ZZZ047, 4-[1-(2-aminoethyl)-3-(1-ethyl-3-methyl-1H-pyrazol-5-yl)-1H-1,2,4-triazol-5-yl]-1-methyl-1H-pyrazolo[4,3-c]pyridine-6-carboxamide]",> 90
9,"CCn1nc(C)c(C(F)(F)F)c1-c1nnc(-c2cc(C(N)=O)cc3c2cnn3C)[nH]1 [ZZZ048, 4-{5-[1-ethyl-3-methyl-4-(trifluoromethyl)-1H-pyrazol-5-yl]-4H-1,2,4-triazol-3-yl}-1-methyl-1H-indazole-6-carboxamide]",912
10,"Cc1nn(CC(CO)CO)c(-c2n[nH]c(-c3cc(C(N)=O)cc4c3cnn4C)n2)c1F [ZZZ049, 4-(3-{4-fluoro-1-[3-hydroxy-2-(hydroxymethyl)propyl]-3-methyl-1H-pyrazol-5-yl}-1H-1,2,4-triazol-5-yl)-1-methyl-1H-indazole-6-carboxamide]",> 900
11,"CCn1nc(CO)cc1-c1nnc(-c2cc(C(N)=O)cc3c2cnn3C)[nH]1 [ZZZ050, 4-{5-[1-ethyl-3-(hydroxymethyl)-1H-pyrazol-5-yl]-4H-1,2,4-triazol-3-yl}-1-methyl-1H-indazole-6-carboxamide]",> 990
12,"CCn1nc(C)cc1-c1nc(CN)c(-c2nc(C(N)=O)cc3c2cnn3C)o1 [ZZZ051, 4-[4-(aminomethyl)-2-(1-ethyl-3-methyl-1H-pyrazol-5-yl)-1,3-oxazol-5-yl]-1-methyl-1H-pyrazolo[4,3-c] pyridine-6-carboxamide]",191
13,"CCn1nc(CO)c(F)c1-c1nc(-c2nc(C(N)=O)cc3c2cnn3C)n(C)n1 [ZZZ052, 4-{3-[1-ethyl-4-fluoro-3-(hydroxymethyl)-1H-pyrazol-5-yl]-1-methyl-1H-1,2,4-triazol-5-yl}-1-methyl-1H-pyrazolo[4,3-c]pyridine-6-carboxamide]",> 990
14,"CCn1nc(C)c(I)c1-c1nnc(-c2cc(C(N)=O)cc3c2cnn3C)[nH]1 [ZZZ053, 4-[5-(1-ethyl-4-iodo-3-methyl-1H-pyrazol-5-yl)-4H-1,2,4-triazol-3-yl]-1-methyl-1H-indazole-6-carboxamide]",> 990
15,"CCn1nc(C)c(F)c1-c1n[nH]c(-c2cc(C(N)=O)cc3c2cnn3CCCNC)n1 [ZZZ054, 4-[3-(1-ethyl-4-fluoro-3-methyl-1H-pyrazol-5-yl)-1H-1,2,4-triazol-5-yl]-1-[3-(methylamino)propyl]-1H-indazole-6-carboxamide]",> 1890
16,"CCc1nc(C)[nH]c1-c1n[nH]c(-c2cc(C(N)=O)cc3c2cnn3C)n1 [ZZZ055, 4-[3-(4-ethyl-2-methyl-1H-imidazol-5-yl)-1H-1,2,4-triazol-5-yl]-1-methyl-1H-indazole-6-carboxamide]",> 990
